The values that follow come from patent US9133228B2, “Guanidinyl-substituted polyamides useful for treating human papilloma virus” (Nanovir, LLC, priority 2011, dated 2015).

Bounds are passed on as bounds.

One experiment relates to HPV18. The experiment in a line: Inhibition of viral replication in cells that maintain HPV18 DNA, viral DNA quantified by real-time PCR. In kind it is cell-based, Human papilloma virus. From the text:
(§1) Table 1a lists a number of exemplary polyamides synthesized in accordance with the present invention. The HPLC/MW values given in Table 1b were obtained using low resolution high pressure liquid chromatography/mass spectrometry (LR HPLC/MS), which provides moderate precision masses of single isotopomers rather than average molecular weights or exact masses. Table 2 presents a summary of measured IC50 values of certain of these polyamides against HPV16, HPV18 and HPV31. The IC50 is the concentration of compound required for 50% inhibition of viral replication in vitro. The polyamides were tested in cells that maintain HPV16, HPV18 or HPV31 DNA. Cells maintaining the selected HPV were cultured for 72 hours in the presence of the polyamide. Viral DNA was then quantified using real-time PCR and compared to vehicle (DMSO)-treated control cultures. […] Table 3 presents a summary of measured IC50 and IC90 values of certain of these polyamides against HPV16, HPV18 and HPV31.
On the technique in general: Real-time PCR tracks product formation cycle by cycle.

Another experiment concerns HPV16. The experiment in a line: Inhibition of viral replication in cells that maintain HPV16 DNA, viral DNA quantified by real-time PCR. In kind it is cell-based, Human papilloma virus.
From the text: as §1

In another experiment the test system is HPV31. The experiment in a line: Inhibition of viral replication in cells that maintain HPV31 DNA, viral DNA quantified by real-time PCR. In kind it is cell-based, Human papilloma virus.
From the text: as §1

Experiment [1] deals with sequence of HPV16 (365 bp: 7662-122). The experiment in a line: DNase I footprinting experiment. It is filed as binding, Human papilloma virus. The settings on record: polyamide 2 nM and 5 nM; DNA 200 pM; DMSO and CHAPS; 37° C. for 5-6 hrs. How it is done:
FIG. 9 illustrates a footprinting experiment of NV1087 on a sequence of HPV16 (365 bp: 7662-122). All reactions were carried out in presence of DMSO and CHAPS, and the final DNA concentration was 200 pM. The polyamide concentration varied (2 nM and 5 nM). Reactions were incubated with polyamide at 37° C. for 5-6 hrs.

The mark [2] stands for this setting: cells maintaining HPV18 cultured 72 hours with polyamide, vs DMSO control, highest dose tested 10 μM.
Where [3] appears, read: cells maintaining HPV16 cultured 72 hours with polyamide, vs DMSO control, highest dose tested 10 μM.
The mark [4] stands for this setting: cells maintaining HPV31 cultured 72 hours with polyamide, vs DMSO control, highest dose tested 10 μM.

The IC50 is the concentration that gives 50% inhibition. Consider `CN(CCCN)CCCNC(=O)c1cc(NC(=O)c2cc(NC(=O)CCNC(=O)c3cc(NC(=O)c4cc(NC(=O)c5cc(NC(=O)CCNC(=O)c6cc(NC(=O)c7cc(NC(=O)CCNC(=O)c8cc(NC(=O)[C@H](N)CCNC(=O)c9nc(NC(=O)c%10cc(NC(=O)CCNC(=O)c%11cc(NC(=O)c%12cc(NC(=O)CCNC(=O)c%13cc(NC(=O)c%14cc(N=C(N(C)C)N(C)C)cn%14C)cn%13C)cn%12C)cn%11C)cn%10C)cn9C)cn8C)cn7C)cn6C)cn5C)cn4C)cn3C)cn2C)cn1C` [NV1071, TMG-PyPyβPyPyβPyIm-γNH2-PyβPyPyβPyPyPyβPyPy-Ta•5TFA], for which the IC50 was determined as 93 nM in the experiment on HPV18 (setting [2]), 255 nM with HPV16 (setting [3]) and 95 nM in the experiment with HPV31 (setting [4]).
For `CN(CCCN)CCCNC(=O)CCNC(=O)c1cc(NC(=O)CCNC(=O)c2cc(NC(=O)c3cc(NC(=O)c4cc(NC(=O)CCNC(=O)c5cc(NC(=O)c6cc(NC(=O)c7cc(NC(=O)[C@@H](CCNC(=O)c8cc(NC(=O)CCNC(=O)c9cc(NC(=O)c%10cc(NC(=O)CCNC(=O)c%11cc(NC(=O)c%12cc(NC(=O)c%13cc(N=C(N(C)C)N(C)C)cn%13C)cn%12C)cn%11C)cn%10C)cn9C)cn8C)NC(=O)NCCCN(C)CCCN)cn7C)cn6C)cn5C)cn4C)cn3C)cn2C)cn1C` [NV1074, TMG-PyPyPyβPyPyβPy-γNHR′-PyPyPyβPyPyPyβPyβ-Ta•5TFA] the same measures were 41 nM, 178 nM and 52 nM.
For `CN(CCCN)CCCNC(=O)CCNC(=O)c1cc(NC(=O)CCNC(=O)c2cc(NC(=O)c3cc(NC(=O)c4cc(NC(=O)CCNC(=O)c5cc(NC(=O)c6cc(NC(=O)CCNC(=O)c7cc(NC(=O)CCCNC(=O)c8nc(NC(=O)c9cc(NC(=O)CCNC(=O)c%10cc(NC(=O)c%11cc(NC(=O)CCNC(=O)c%12cc(NC(=O)c%13cc(N=C(N(C)C)N(C)C)cn%13C)cn%12C)cn%11C)cn%10C)cn9C)cn8C)cn7C)cn6C)cn5C)cn4C)cn3C)cn2C)cn1C` [NV1090, TMG-PyPyβPyPyβPyIm-γ-PyβPyPyβPyPyPyβPyβ-Ta•4TFA] the same measures were 53 nM, 51 nM and 22 nM.
In the same order, the values of `CN(CCCN)CCCNC(=O)CCNC(=O)c1cc(NC(=O)CCNC(=O)c2cc(NC(=O)c3cc(NC(=O)c4cc(NC(=O)CCNC(=O)c5cc(NC(=O)c6cc(NC(=O)CCNC(=O)c7cc(NC(=O)[C@H](N)CCNC(=O)c8nc(NC(=O)c9cc(NC(=O)CCNC(=O)c%10cc(NC(=O)c%11cc(NC(=O)CCNC(=O)c%12cc(NC(=O)c%13cc(N=C(N(C)C)N(C)C)cn%13C)cn%12C)cn%11C)cn%10C)cn9C)cn8C)cn7C)cn6C)cn5C)cn4C)cn3C)cn2C)cn1C` [NV1096, TMG-PyPyβPyPyβPyIm-γNH2-PyβPyPyβPyPyPyβPβ-Ta•5TFA] are 36 nM, 24 nM and 35 nM.
Consider `CN(CCCN)CCCNC(=O)CCNC(=O)c1cc(NC(=O)CCNC(=O)c2cc(NC(=O)c3cc(NC(=O)c4cc(NC(=O)CCNC(=O)c5cc(NC(=O)c6cc(NC(=O)CCNC(=O)c7cc(NC(=O)CCCNC(=O)c8nc(NC(=O)c9cc(NC(=O)CCNC(=O)c%10cc(NC(=O)c%11cc(NC(=O)CCNC(=O)c%12cc(NC(=O)c%13cc(NC(=O)c%14cc(N=C(N(C)C)N(C)C)cn%14C)cn%13C)cn%12C)cn%11C)cn%10C)cn9C)cn8C)cn7C)cn6C)cn5C)cn4C)cn3C)cn2C)cn1C.O=C(O)C(F)(F)F.O=C(O)C(F)(F)F.O=C(O)C(F)(F)F.O=C(O)C(F)(F)F` [NV1087, TMG-PyPyPyβPyPyβPyIm-γ-PyβPyPyβPyPyPyβPyβ-Ta•4TFA], for which the figures for the concentration for half-maximal inhibition (IC50) in the experiment with HPV18 (setting [2]), in the experiment with HPV16 (setting [3]) and in the experiment with HPV31 (setting [4]) were 24 nM, 31 nM and 16 nM, respectively. The “protection of DNA from digestion by DNase I (decrease in peak heights)” value in experiment [1] was “protects the DNA from digestion by DNase I”.
The term IC90 denotes the concentration at which the effect reaches the 90% level. Read a high IC90 as weaker potency. In the case of `CN(CCCN)CCCNC(=O)CCNC(=O)c1cc(NC(=O)CCNC(=O)c2cc(NC(=O)c3cc(NC(=O)c4cc(NC(=O)CCNC(=O)c5cc(NC(=O)c6cc(NC(=O)c7cc(NC(=O)CCCNC(=O)c8cc(NC(=O)CCNC(=O)c9cc(NC(=O)c%10cc(NC(=O)CCNC(=O)c%11cc(NC(=O)c%12cc(N=C(N(C)C)N(C)C)cn%12C)cn%11C)cn%10C)cn9C)cn8C)cn7C)cn6C)cn5C)cn4C)cn3C)cn2C)cn1C` [NV1097, TMG-PyPyβPyPyβPy-γ-PyPyPyβPyPyPyβPyβ-Ta•3TFA], the concentration for half-maximal inhibition (IC50) was found to be 257 nM in the experiment with HPV18 (Table 3, 72 hours); 257 nM in the experiment on HPV18 (setting [2]); 70 nM with HPV16 (Table 3, 72 hours); 70 nM in the experiment with HPV16 (setting [3]); 40 nM in the experiment on HPV31 (Table 3, 72 hours); 40 nM in the experiment with HPV31 (setting [4]). For the same compound, the IC90 with HPV18 (Table 3, 72 hours) is > 10000 nM; in the experiment with HPV16 (Table 3, 72 hours) it was 1410 nM; in the experiment on HPV31 (Table 3, 72 hours) it was 10000 nM.
Consider “TMG-PyPyβPyPyβ-γNH2-PyPyPyβPyPyPyβPyβ-Ta•4TFA [NV1095]”, for which the IC50 with HPV18 (setting [2]) was > 10000 nM; with HPV16 (setting [3]) it was 204 nM; in the experiment on HPV31 (setting [4]), 49 nM.
For `CN(CCCN)CCCNC(=O)CCNC(=O)c1cc(NC(=O)c2cc(NC(=O)c3cc(NC(=O)CCNC(=O)c4cc(NC(=O)c5cc(NC(=O)c6cc(NC(=O)CCNC(=O)c7cc(NC(=O)c8cc(NC(=O)CCCNC(=O)c9cc(NC(=O)c%10cc(NC(=O)CCNC(=O)c%11nc(NC(=O)c%12cc(NC(=O)c%13cc(NC(=O)CCNC(=O)c%14cc(NC(=O)c%15cc(N=C(N(C)C)N(C)C)cn%15C)cn%14C)cn%13C)cn%12C)cn%11C)cn%10C)cn9C)cn8C)cn7C)cn6C)cn5C)cn4C)cn3C)cn2C)cn1C` [NV1085, TMG-PyPyβPyPyImβPyPy-γ-PyPyβPyPyPyβPyPyPyβ-Ta•4TFA] the same measures were 41 nM, 29 nM and 32 nM.
As to `CN(C)CCCNC(=O)CCNC(=O)c1cc(NC(=O)c2cc(NC(=O)c3cc(NC(=O)c4cc(NC(=O)CCNC(=O)c5cc(NC(=O)c6cc(NC(=O)CCCNC(=O)c7cc(NC(=O)c8cc(NC(=O)c9cc(NC(=O)CCNC(=O)c%10cc(NC(=O)c%11cc(N=C(N(C)C)N(C)C)cn%11C)cn%10C)cn9C)cn8C)cn7C)cn6C)cn5C)cn4C)cn3C)cn2C)cn1C` [NV1083, TMG-PyPyβPyPyPy-γ-PyPyβPyPyPyPyβ-Dp•2TFA], the IC50 in the experiment with HPV18 (setting [2]) came out at 929 nM; with HPV16 (setting [3]), 2410 nM; in the experiment on HPV31 (setting [4]), 3080 nM.
In the same order, the values of `CN(CCCN)CCCNC(=O)CCNC(=O)c1cc(NC(=O)c2cc(NC(=O)c3cc(NC(=O)c4cc(NC(=O)CCNC(=O)c5cc(NC(=O)c6cc(NC(=O)CCCNC(=O)c7cc(NC(=O)c8cc(NC(=O)c9cc(NC(=O)CCNC(=O)c%10cc(NC(=O)c%11cc(N=C(N(C)C)N(C)C)cn%11C)cn%10C)cn9C)cn8C)cn7C)cn6C)cn5C)cn4C)cn3C)cn2C)cn1C` [NV1084, TMG-PyPyβPyPyPy-γ-PyPyβPyPyPyPyβ-Ta•3TFA] are 1040 nM, 1910 nM and 7320 nM.
In the same order, the values of `CN(C)CCCNC(=O)CCNC(=O)c1cc(NC(=O)c2cc(NC(=O)c3cc(NC(=O)c4cc(NC(=O)CCNC(=O)c5cc(NC(=O)c6cc(NC(=O)CCCNC(=O)c7cc(NC(=O)c8cc(NC(=O)c9cc(NC(=O)CCNC(=O)c%10cc(N=C(N(C)C)N(C)C)cn%10C)cn9C)cn8C)cn7C)cn6C)cn5C)cn4C)cn3C)cn2C)cn1C` [NV1081, TMG-PyβPyPyPy-γ-PyPyβPyPyPyPyβ-Dp•2TFA] are > 10000 nM, > 10000 nM and > 10000 nM.
In the same order, the values of `CN(CCCN)CCCNC(=O)CCNC(=O)c1cc(NC(=O)CCNC(=O)c2cc(NC(=O)c3cc(NC(=O)c4cc(NC(=O)CCNC(=O)c5cc(NC(=O)c6cc(NC(=O)CCNC(=O)c7cc(NC(=O)[C@@H](CCNC(=O)c8nc(NC(=O)c9cc(NC(=O)CCNC(=O)c%10cc(NC(=O)c%11cc(NC(=O)CCNC(=O)c%12cc(NC(=O)c%13cc(NC(=O)c%14cc(N=C(N(C)C)N(C)C)cn%14C)cn%13C)cn%12C)cn%11C)cn%10C)cn9C)cn8C)NC(=O)NCCCN(C)CCCN)cn7C)cn6C)cn5C)cn4C)cn3C)cn2C)cn1C` [NV1072, TMG-PyPyPyβPyPyβPyIm-γNHR′-PyβPyPyβPyPyPyβPyβ-Ta•6TFA] are 216 nM, 109 nM and 96 nM.
